Experimental data taken from patent US8298522B1, “Methods of modulating MUC1 expression to inhibit inflammation” (priority 2005, dated 2012).

Columns and labels:
[1] = system: MUC1 promoter; experiment: MUC1 promoter-luciferase reporter assay in A549 cells; conditions: MUC1-pGL2b-transfected A549 cells, 100 nM NE, 24 hr
[2] = system: Sp1 binding to the −99/−90 segment of the MUC1 promoter; experiment: EMSA of Sp1 binding to the MUC1 promoter segment; set-up: species or system human; conditions: A549 nuclear extracts, 100 nM NE 0-120 min
Experimental: Referring now to FIG. 16, NE enhances the binding of Sp1 to the −99/−90 segment in the MUC1 promoter. Confluent A549 cells were treated with vehicle control (A) or 100 nM NE (B) for 0, 10, 20, 30, 60, or 120 min. Cells were lysed and nuclear extracts were incubated with or without 100-fold molar excess of unlabeled probe, poly(dIdC) as a non-specific competitor, or Sp1 antibody for 30 min on ice, and then incubated with a [γ-^32P]-labeled oligonucleotide corresponding to the human MUC1 promoter between nucleotides −104 and −83. DNA-protein complexes were resolved on 4.5% polyacrylamide gels and analyzed by autoradiography.
Electrophoretic mobility shift assay (EMSA). Confluent A549 cells were treated with 100 nM NE for 0, 10, 20, 30, 60, or 120 min. Following treatment, nuclear extracts were prepared as previously described (31). […]
Protein concentrations were measured by the procedure of Bradford (8). […] The DNA-protein complexes were resolved on 4.5% polyacrylamide gels and analyzed by autoradiography as described in Lee et al. 2004, Differential expression of mu-opioid receptor gene in CXBK and B6 mice by Sp1, Mol Pharmacol 66: 1580-1584.

[3] = system: MUC1; experiment: Degradation of MUC1 in spent medium aliquots by NE (ELISA); type: biochemical, human; conditions: spent medium of A549 cells, 100 nM NE, 24 hr
Experimental: To verify the ability of NE to degrade MUC1, aliquots of a spent medium sample containing MUC1 molecules were incubated for 24 hr in the presence of NE and the amounts of MUC1 measured by ELISA.

[4] = system: MUC1 protein in A549 cells
Experimental: Confluent A549 cells were incubated in the presence or absence of 5.0 μg/ml of actinomycin (AcD) or 10 μg/ml of cycloheximide (Chx) for 1 hr and either non-treated or treated for 24 hr with 100 nM of NE. MUC1 protein levels in cell lysates (A) and spent media (B) were measured by ELISA. Each bar represents the mean±SEM (n=3). […] (C) Aliquots of spent media obtained from confluent A549 cells were non-treated (0 hr) or treated for 24 hr with 100 nM NE or vehicle control and MUC1 levels in the spent media determined by ELISA. Each bar represents the mean±SEM (n=3).
A549 cells were seeded at 5.0×10^4 cells/well in 24-well plates in Dulbecco's Modified Eagle Medium (DMEM) containing 10% fetal bovine serum (FBS), 100 U/ml penicillin, and 100 μg/ml streptomycin (all from Invitrogen, Carlsbad, Calif.) and incubated at 37° C. in a humidified CO2 incubator. Confluent monolayers were washed with serum-free DMEM and treated with 100 nM (2.6 U/ml) NE or vehicle control (PBS) for 24 hr. In some experiments, the cells were pretreated for 1 hr with 5.0 μg/ml of actinomycin D or 10 μg/ml of cycloheximide prior to NE treatment. Following treatment, cell-conditioned media were collected, and the cells were washed with PBS and lysed with 500 μl/well of PBS containing 1.0% Triton X-100, 1.0% sodium deoxycholate, 1.0% protease inhibitor cocktail, and 2.0 mM phenylmethylsulfonyl fluoride (PMSF). Lysates and conditioned media were incubated for 20 min at 80° C. to inactivate residual NE, insoluble material removed by centrifugation at 14,000×g for 10 min at 4° C., and protein concentrations measured by the procedure of Bradford using bovine serum albumin as standard.
ELISA. A549 cell lysates or cell-conditioned culture media were centrifuged at 10,000×g for 10 min at 4° C., added in triplicate to 96-well ELISA plates (MaxiSorb™, Nalge Nunc, Rochester, N.Y.), and incubated overnight at 4° C. Wells were blocked for 1 hr at room temperature (about 22° C.) with PBS, pH 7.0, containing 10 mg/ml BSA and 50 mg/ml sucrose and washed with PBS containing 0.05% Tween 20 (PBS-T). The samples were reacted for 2 hr at room temperature with 200 μg/ml of primary MUC1 antibody (GP1.4), washed with PBS-T, reacted for 2 hr at room temperature with 200 μg/ml of secondary antibody (peroxidase-conjugated goat antimouse IgG) (KPL, Gaithersburg, Md.), and washed with PBS-T. Bound antibodies were detected with tetramethylbenzidine substrate (SureBlue™, KPL), the substrate reaction stopped with 1 N HCl, and absorbencies at 450 nm measured using a microplate spectrophotometer (Dexall, Gaithersburg, Md.).

[5] = system: MUC1 mRNA; experiment: Effect of NE on MUC1 mRNA expression and stability in A549 cells (real time RT-PCR); type: cell-based, human
Experimental: Referring now to FIG. 11. […] MUC1 mRNA levels were measured by real time RT-PCR and normalized to GAPDH mRNA levels. Each data point represents the mean±SEM (n=3).
Effect of NE on MUC1 mRNA expression. A549 cells were seeded in DMEM plus 10% FBS in 24-well plates at 5.0×10^4 cells/well, cultured to confluence for 24 hr at 37° C., and treated for 24 hr with various concentrations of NE (0, 10, 25, 50, 100, or 150 nM) or vehicle control. […] At the end of each chase period, the cells were washed with PBS and MUC1 transcripts quantified by real time RT-PCR.
Real time RT-PCR. Total RNA was isolated using RNeasy (Qiagen, Valencia, Calif.) and 2.0 μg was reverse transcribed using the iScript cDNA Synthesis kit (BioRad, Hercules, Calif.) in a total volume of 20 μl. Real time PCR was carried out using the Taqman probes and iQ™ Supermix (BioRad) according to the manufacturer's instructions. Briefly, 2.0 μl of cDNA or control plasmid was used as template for amplification in the iCycler (BioRad) with 200 nM of MUC1 or GAPDH (internal control) primers and probes. […] The CT value was defined as the number of PCR cycles required for the specific fluorescence signal to exceed the detection threshold value set by the software installed in the iCycler. […] The levels of MUC1 and GAPDH mRNAs were calculated from the standard curves and the expression of MUC1 transcripts was normalized to GAPDH transcripts.

[6] = system: MUC1 transcription; experiment: Trypsin-induced MUC1 transcription compared with NE; type: cell-based

Row | Substance | MUC1 promoter luciferase activity compared with vehicle control [1] | time of maximum Sp1 binding to the MUC1 promoter segment in the presence of NE [2] [min] | MUC1 remaining in spent medium aliquots after incubation with NE [3] | MUC1 in spent media compared with the control group ([4]; A549 cells, 100 nM NE 24 hr, with or without AcD or Chx pretreatment) [%] | increase of MUC1 levels in cell lysates compared with 24 hr control ([4]; confluent A549 cells, 100 nM NE, 24 hr) [%] | effect on MUC1 mRNA stability ([5]; 100 nM NE 24 hr, chase with 5.0 μg/ml actinomycin D 0-24 hr) | MUC1 mRNA levels with increasing doses and time ([5]; NE 0-150 nM, real time RT-PCR) | activity in inducing MUC1 transcription relative to that of NE [6]
1 | neutrophil elastase | significantly higher luciferase activity | 60 | no detectable amounts of MUC1 | 45 | 33 | does not alter MUC1 mRNA stability | progressively higher MUC1 mRNA levels | –
2 | Trypsin | – | – | – | – | – | – | – | less than 10%
